Molecular target: Tie-2 (Homo sapiens, UniProt Q02763)
Experiment: Tie-2 tyrosine kinase activity: kinase-dependent ATP consumption (pEY substrate, luciferase/luciferin chemiluminescence) or 33P-ATP incorporation into substrate
Format: biochemical
Details: Tie-2 (human enzyme) inhibition, Table 2, class symbols A-D
Method in brief: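 Values are IC50 categories: A below 50 nM, B above 50 to 1000 nM, C above 1000 to below 10,000 nM, D 10,000 nM or more. They were measured by 33P-ATP phosphate transfer onto a generic substrate bound to the plate (scintillation), or by luminescent luciferase detection of ATP used with pEY.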

Tie-2, sequence (Q02763 23-1124): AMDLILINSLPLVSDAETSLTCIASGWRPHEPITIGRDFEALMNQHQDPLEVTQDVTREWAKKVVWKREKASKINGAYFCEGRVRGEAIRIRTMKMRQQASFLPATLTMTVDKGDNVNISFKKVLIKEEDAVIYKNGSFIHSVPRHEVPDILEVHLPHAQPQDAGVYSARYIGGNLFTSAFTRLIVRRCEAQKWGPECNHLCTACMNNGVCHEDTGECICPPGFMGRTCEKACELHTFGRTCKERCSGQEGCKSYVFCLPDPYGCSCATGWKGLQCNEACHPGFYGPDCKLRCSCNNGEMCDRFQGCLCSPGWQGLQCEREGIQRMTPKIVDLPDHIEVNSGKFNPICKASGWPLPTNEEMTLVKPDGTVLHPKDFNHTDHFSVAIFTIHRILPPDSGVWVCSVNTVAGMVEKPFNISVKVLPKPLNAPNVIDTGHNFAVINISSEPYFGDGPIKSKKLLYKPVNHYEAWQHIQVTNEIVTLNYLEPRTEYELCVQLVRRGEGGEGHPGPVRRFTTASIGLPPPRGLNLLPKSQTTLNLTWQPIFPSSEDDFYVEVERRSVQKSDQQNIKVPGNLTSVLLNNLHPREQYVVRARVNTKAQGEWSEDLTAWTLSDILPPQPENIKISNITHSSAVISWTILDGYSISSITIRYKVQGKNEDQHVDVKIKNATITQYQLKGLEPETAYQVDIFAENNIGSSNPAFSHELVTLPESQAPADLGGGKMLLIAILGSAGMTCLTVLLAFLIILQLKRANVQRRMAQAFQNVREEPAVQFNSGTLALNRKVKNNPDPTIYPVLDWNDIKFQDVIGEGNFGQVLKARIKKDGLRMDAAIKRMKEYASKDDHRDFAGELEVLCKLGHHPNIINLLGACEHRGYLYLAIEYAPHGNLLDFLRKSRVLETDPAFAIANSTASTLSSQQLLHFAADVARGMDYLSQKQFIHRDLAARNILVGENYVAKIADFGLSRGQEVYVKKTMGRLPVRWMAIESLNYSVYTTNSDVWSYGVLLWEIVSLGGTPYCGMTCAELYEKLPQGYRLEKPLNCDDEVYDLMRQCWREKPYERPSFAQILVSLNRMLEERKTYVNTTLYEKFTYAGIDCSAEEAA

IC50	SMILES
≥ 10 µM	C=C(C)c1cccc(C(C)(C)NC(=O)N(CCn2nc(-c3ccncc3)nc2-c2ccc(OC)c(Cl)c2)C2CCCC2)c1 [Entry 114, N-(2-{5-[3-chloro-4-(methyloxy)phenyl]-3-pyridin-4-yl-1H-1,2,4-triazol-1-yl}ethyl)-N-cyclopentyl-N′-{1-methyl-1-[3-(1-methylethenyl)phenyl]ethyl}urea]
≥ 10 µM	COc1ccc(-c2nc(-c3ccncc3)nn2CCN(C(=O)Nc2ccccc2F)C2CCCC2)cc1Cl [Entry 115, N-(2-{5-[3-chloro-4-(methyloxy)phenyl]-3-pyridin-4-yl-1H-1,2,4-triazol-1-yl}ethyl)-N-cyclopentyl-N′-(2-fluorophenyl)urea]
≥ 10 µM	COc1ccc(-c2nc(-c3ccncc3)nn2CCN(C(=O)Nc2ccc(F)cc2F)C2CCCC2)cc1Cl [Entry 116, N-(2-{5-[3-chloro-4-(methyloxy)phenyl]-3-pyridin-4-yl-1H-1,2,4-triazol-1-yl}ethyl)-N-cyclopentyl-N′-(2,4-difluorophenyl)urea]
≥ 10 µM	COc1ccc(-c2nc(-c3ccncc3)nn2CCN(C(=O)Nc2c(F)cccc2F)C2CCCC2)cc1Cl [Entry 117, N-(2-{5-[3-chloro-4-(methyloxy)phenyl]-3-pyridin-4-yl-1H-1,2,4-triazol-1-yl}ethyl)-N-cyclopentyl-N′-(2,6-difluorophenyl)urea]
1 to 10 µM	COc1ccc(-c2nc(-c3ccncc3)nn2CCN(C(=O)Nc2ccccc2Cl)C2CCCC2)cc1Cl [Entry 118, N-(2-{5-[3-chloro-4-(methyloxy)phenyl]-3-pyridin-4-yl-1H-1,2,4-triazol-1-yl}ethyl)-N′-(2-chlorophenyl)-N-cyclopentylurea]
≥ 10 µM	COc1ccc(-c2nc(-c3ccncc3)nn2CCN(C(=O)Nc2cccc(Cl)c2Cl)C2CCCC2)cc1Cl [Entry 119, N-(2-{5-[3-chloro-4-(methyloxy)phenyl]-3-pyridin-4-yl-1H-1,2,4-triazol-1-yl}ethyl)-N-cyclopentyl-N′-(2,3-dichlorophenyl)urea]
≥ 10 µM	COc1ccc(OC)c(NC(=O)N(CCn2nc(-c3ccncc3)nc2-c2ccc(OC)c(Cl)c2)C2CCCC2)c1 [Entry 120, N′-[2,5-bis(methyloxy)phenyl]-N-(2-{5-[3-chloro-4-(methyloxy)phenyl]-3-pyridin-4-yl-1H-1,2,4-triazol-1-yl}ethyl)-N-cyclopentylurea]
1 to 10 µM	CCOc1ccccc1NC(=O)N(CCn1nc(-c2ccncc2)nc1-c1ccc(OC)c(Cl)c1)C1CCCC1 [Entry 121, N-(2-{5-[3-chloro-4-(methyloxy)phenyl]-3-pyridin-4-yl-1H-1,2,4-triazol-1-yl}ethyl)-N-cyclopentyl-N′-[2-(ethyloxy)phenyl]urea]
≥ 10 µM	COc1ccc(-c2nc(-c3ccncc3)nn2CCN(C(=O)Nc2ccccc2C(F)(F)F)C2CCCC2)cc1Cl [Entry 122, N-(2-{5-[3-chloro-4-(methyloxy)phenyl]-3-pyridin-4-yl-1H-1,2,4-triazol-1-yl}ethyl)-N-cyclopentyl-N′-[2-(trifluoromethyl)phenyl]urea]
≥ 10 µM	COc1ccc(-c2nc(-c3ccncc3)nn2CCN(C(=O)Nc2c(C)cccc2C)C2CCCC2)cc1Cl [Entry 123, N-(2-{5-[3-chloro-4-(methyloxy)phenyl]-3-pyridin-4-yl-1H-1,2,4-triazol-1-yl}ethyl)-N-cyclopentyl-N′-(2,6-dimethylphenyl)urea]
≥ 10 µM	COc1ccc(-c2nc(-c3ccncc3)nn2CCN(C(=O)Nc2ccc(C(F)(F)F)cc2)C2CCCC2)cc1Cl [Entry 124, N-(2-{5-[3-chloro-4-(methyloxy)phenyl]-3-pyridin-4-yl-1H-1,2,4-triazol-1-yl}ethyl)-N-cyclopentyl-N′-[4-(trifluoromethyl)phenyl]urea]
1 to 10 µM	COc1ccc(-c2nc(-c3ccncc3)nn2CCN(C(=O)N[C@@H](C)c2ccccc2)C2CCCC2)cc1Cl [Entry 125, N-(2-{5-[3-chloro-4-(methyloxy)phenyl]-3-pyridin-4-yl-1H-1,2,4-triazol-1-yl}ethyl)-N-cyclopentyl-N′-[(1S)-1-phenylethyl]urea]
≥ 10 µM	COc1ccc(-c2nc(-c3ccncc3)nn2CCN(C(=O)Nc2cc(Cl)c(Cl)cc2Cl)C2CCCC2)cc1Cl [Entry 126, N-(2-{5-[3-chloro-4-(methyloxy)phenyl]-3-pyridin-4-yl-1H-1,2,4-triazol-1-yl}ethyl)-N-cyclopentyl-N′-(2,4,5-trichlorophenyl)urea]
1 to 10 µM	COc1ccc(-c2nc(-c3ccncc3)nn2CCN(C(=O)Nc2cccc(C)c2C)C2CCCC2)cc1Cl [Entry 127, N-(2-{5-[3-chloro-4-(methyloxy)phenyl]-3-pyridin-4-yl-1H-1,2,4-triazol-1-yl}ethyl)-N-cyclopentyl-N′-(2,3-dimethylphenyl)urea]
≥ 10 µM	COc1ccc(-c2nc(-c3ccncc3)nn2CCN(C(=O)Nc2ccc(C)cc2C)C2CCCC2)cc1Cl [Entry 128, N-(2-{5-[3-chloro-4-(methyloxy)phenyl]-3-pyridin-4-yl-1H-1,2,4-triazol-1-yl}ethyl)-N-cyclopentyl-N′-(2,4-dimethylphenyl)urea]
≥ 10 µM	COc1ccc(-c2nc(-c3ccncc3)nn2CCN(C(=O)Nc2ccc(C)c(Cl)c2)C2CCCC2)cc1Cl [Entry 129, N-(2-{5-[3-chloro-4-(methyloxy)phenyl]-3-pyridin-4-yl-1H-1,2,4-triazol-1-yl}ethyl)-N′-(3-chloro-4-methylphenyl)-N-cyclopentylurea]
≥ 10 µM	COc1ccc(-c2nc(-c3ccncc3)nn2CCN(C(=O)Nc2c(C)cccc2C(C)(C)C)C2CCCC2)cc1Cl [Entry 130, N-(2-{5-[3-chloro-4-(methyloxy)phenyl]-3-pyridin-4-yl-1H-1,2,4-triazol-1-yl}ethyl)-N-cyclopentyl-N′-[2-(1,1-dimethylethyl)-6-methylphenyl]urea]
≥ 10 µM	CCCCOc1ccc(NC(=O)N(CCn2nc(-c3ccncc3)nc2-c2ccc(OC)c(Cl)c2)C2CCCC2)cc1 [Entry 131, N′-[4-(butyloxy)phenyl]-N-(2-{5-[3-chloro-4-(methyloxy)phenyl]-3-pyridin-4-yl-1H-1,2,4-triazol-1-yl}ethyl)-N-cyclopentylurea]
≥ 10 µM	COc1ccc(-c2nc(-c3ccncc3)nn2CCN(C(=O)Nc2cccc([N+](=O)[O-])c2C)C2CCCC2)cc1Cl [Entry 132, N-(2-{5-[3-chloro-4-(methyloxy)phenyl]-3-pyridin-4-yl-1H-1,2,4-triazol-1-yl}ethyl)-N-cyclopentyl-N′-(2-methyl-3-nitrophenyl)urea]
≥ 10 µM	COc1ccc(-c2nc(-c3ccncc3)nn2CCN(C(=O)Nc2cc(Cl)ccc2Cl)C2CCCC2)cc1Cl [Entry 133, N-(2-{5-[3-chloro-4-(methyloxy)phenyl]-3-pyridin-4-yl-1H-1,2,4-triazol-1-yl}ethyl)-N-cyclopentyl-N′-(2,5-dichlorophenyl)urea]
1 to 10 µM	COc1ccc(-c2nc(-c3ccncc3)nn2CCN(C(=O)Nc2cccc(F)c2)C2CCCC2)cc1Cl [Entry 134, N-(2-{5-[3-chloro-4-(methyloxy)phenyl]-3-pyridin-4-yl-1H-1,2,4-triazol-1-yl}ethyl)-N-cyclopentyl-N′-(3-fluorophenyl)urea]
≥ 10 µM	COc1ccc(-c2nc(-c3ccncc3)nn2CCN(C(=O)Nc2ccc(Cl)cc2)C2CCCC2)cc1Cl [Entry 135, N-(2-{5-[3-chloro-4-(methyloxy)phenyl]-3-pyridin-4-yl-1H-1,2,4-triazol-1-yl}ethyl)-N′-(4-chlorophenyl)-N-cyclopentylurea]
≥ 10 µM	COc1ccc(-c2nc(-c3ccncc3)nn2CCN(C(=O)Nc2ccc(C)cc2)C2CCCC2)cc1Cl [Entry 136, N-(2-{5-[3-chloro-4-(methyloxy)phenyl]-3-pyridin-4-yl-1H-1,2,4-triazol-1-yl}ethyl)-N-cyclopentyl-N′-(4-methylphenyl)urea]
≥ 10 µM	COc1ccc(-c2nc(-c3ccncc3)nn2CCN(C(=O)Nc2c(Cl)cc(Cl)cc2Cl)C2CCCC2)cc1Cl [Entry 137, N-(2-{5-[3-chloro-4-(methyloxy)phenyl]-3-pyridin-4-yl-1H-1,2,4-triazol-1-yl}ethyl)-N-cyclopentyl-N′-(2,4,6-trichlorophenyl)urea]
1 to 10 µM	COc1ccc(NC(=O)N(CCn2nc(-c3ccncc3)nc2-c2ccc(OC)c(Cl)c2)C2CCCC2)c(C)c1 [Entry 138, N-(2-{5-[3-chloro-4-(methyloxy)phenyl]-3-pyridin-4-yl-1H-1,2,4-triazol-1-yl}ethyl)-N-cyclopentyl-N′-[2-methyl-4-(methyloxy)phenyl]urea]
1 to 10 µM	COc1ccc(-c2nc(-c3ccncc3)nn2CCN(C(=O)Nc2cc(C)ccc2C)C2CCCC2)cc1Cl [Entry 139, N-(2-{5-[3-chloro-4-(methyloxy)phenyl]-3-pyridin-4-yl-1H-1,2,4-triazol-1-yl}ethyl)-N-cyclopentyl-N′-(2,5-dimethylphenyl)urea]
≥ 10 µM	COc1ccc(-c2nc(-c3ccncc3)nn2CCN(C(=O)Nc2cc(Cl)c(OC)cc2OC)C2CCCC2)cc1Cl [Entry 140, N′-[5-chloro-2,4-bis(methyloxy)phenyl]-N-(2-{5-[3-chloro-4-(methyloxy)phenyl]-3-pyridin-4-yl-1H-1,2,4-triazol-1-yl}ethyl)-N-cyclopentylurea]
≥ 10 µM	COc1ccc(-c2nc(-c3ccncc3)nn2CCN(C(=O)Nc2cc(Cl)cc(Cl)c2)C2CCCC2)cc1Cl [Entry 141, N-(2-{5-[3-chloro-4-(methyloxy)phenyl]-3-pyridin-4-yl-1H-1,2,4-triazol-1-yl}ethyl)-N-cyclopentyl-N′-(3,5-dichlorophenyl)urea]
≥ 10 µM	COc1ccc(-c2nc(-c3ccncc3)nn2CCN(C(=O)Nc2cc(Cl)ccc2OC)C2CCCC2)cc1Cl [Entry 142, N′-[5-chloro-2-(methyloxy)phenyl]-N-(2-{5-[3-chloro-4-(methyloxy)phenyl]-3-pyridin-4-yl-1H-1,2,4-triazol-1-yl}ethyl)-N-cyclopentylurea]

From patent US8178570B2, “Tie-2 modulators and methods of use” (Exelixis, Inc., priority 2003, dated 2012)
